{
  "source": "patent US20210070748A1",
  "about": "“INHIBITORS OF BRUTONS TYROSINE KINASE” (Pharmacyclics LLC, priority 2015, published 2021)",
  "format_in_all_cases": "biochemical",
  "key": {"[1]": {"biological_target": "T1, JAK3 (Homo sapiens, UniProt P52333)", "T1 sequence (P52333 1-1124)": "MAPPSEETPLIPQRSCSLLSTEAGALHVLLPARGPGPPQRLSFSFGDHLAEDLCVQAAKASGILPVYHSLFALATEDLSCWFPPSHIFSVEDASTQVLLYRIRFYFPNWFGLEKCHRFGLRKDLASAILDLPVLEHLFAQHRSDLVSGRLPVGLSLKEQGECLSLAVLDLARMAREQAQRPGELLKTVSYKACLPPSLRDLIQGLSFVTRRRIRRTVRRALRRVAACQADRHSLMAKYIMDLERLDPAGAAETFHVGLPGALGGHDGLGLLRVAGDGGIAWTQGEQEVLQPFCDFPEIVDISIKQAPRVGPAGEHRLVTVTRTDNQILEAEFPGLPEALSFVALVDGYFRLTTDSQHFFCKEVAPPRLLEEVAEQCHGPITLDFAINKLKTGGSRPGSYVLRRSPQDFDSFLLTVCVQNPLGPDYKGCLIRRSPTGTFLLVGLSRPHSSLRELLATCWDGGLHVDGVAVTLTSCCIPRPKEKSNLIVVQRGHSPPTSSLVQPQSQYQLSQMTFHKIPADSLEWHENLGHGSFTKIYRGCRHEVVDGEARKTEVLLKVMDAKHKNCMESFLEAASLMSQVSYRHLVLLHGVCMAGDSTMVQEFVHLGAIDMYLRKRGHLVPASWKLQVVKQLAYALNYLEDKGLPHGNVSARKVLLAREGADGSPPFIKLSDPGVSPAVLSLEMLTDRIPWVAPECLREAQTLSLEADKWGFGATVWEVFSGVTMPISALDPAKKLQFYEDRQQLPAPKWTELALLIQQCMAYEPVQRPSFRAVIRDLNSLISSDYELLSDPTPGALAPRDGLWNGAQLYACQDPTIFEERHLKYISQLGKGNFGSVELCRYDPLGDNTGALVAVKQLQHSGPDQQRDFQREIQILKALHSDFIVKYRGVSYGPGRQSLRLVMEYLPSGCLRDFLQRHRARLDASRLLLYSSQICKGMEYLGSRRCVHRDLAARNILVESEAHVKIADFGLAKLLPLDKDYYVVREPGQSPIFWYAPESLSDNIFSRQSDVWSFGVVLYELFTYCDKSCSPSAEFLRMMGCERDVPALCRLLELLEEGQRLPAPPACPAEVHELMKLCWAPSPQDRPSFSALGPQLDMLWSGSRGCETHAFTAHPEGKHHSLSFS", "experiment": "Inhibition of a panel of kinases, in vitro HotSpot kinase assay: JAK3", "conditions": "D-compounds panel data; 1 μM ATP; read-out: IC50 JAK3"}, "[2]": {"biological_target": "LCK (Homo sapiens, UniProt P06239)", "sequence (P06239 whole entry)": "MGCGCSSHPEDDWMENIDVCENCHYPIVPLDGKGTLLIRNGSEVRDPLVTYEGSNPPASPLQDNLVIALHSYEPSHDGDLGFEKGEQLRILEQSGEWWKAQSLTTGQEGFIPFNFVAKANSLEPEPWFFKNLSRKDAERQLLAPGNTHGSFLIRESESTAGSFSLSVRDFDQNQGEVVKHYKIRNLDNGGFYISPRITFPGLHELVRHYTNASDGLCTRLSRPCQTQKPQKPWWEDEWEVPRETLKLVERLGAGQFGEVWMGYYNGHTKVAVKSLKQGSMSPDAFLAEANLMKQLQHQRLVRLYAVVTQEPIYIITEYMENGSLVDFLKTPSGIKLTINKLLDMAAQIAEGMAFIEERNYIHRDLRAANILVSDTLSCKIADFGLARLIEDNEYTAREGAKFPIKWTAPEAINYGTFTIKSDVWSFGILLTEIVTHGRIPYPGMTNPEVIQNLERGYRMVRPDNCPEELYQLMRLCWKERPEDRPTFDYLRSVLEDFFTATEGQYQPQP", "experiment": "Inhibition of a panel of kinases, in vitro HotSpot kinase assay: LCK", "conditions": "D-compounds panel data; 1 μM ATP; read-out: IC50 LCK"}, "[3]": {"biological_target": "T2, ITK (Homo sapiens, UniProt Q08881)", "T2 sequence (Q08881 1-620)": "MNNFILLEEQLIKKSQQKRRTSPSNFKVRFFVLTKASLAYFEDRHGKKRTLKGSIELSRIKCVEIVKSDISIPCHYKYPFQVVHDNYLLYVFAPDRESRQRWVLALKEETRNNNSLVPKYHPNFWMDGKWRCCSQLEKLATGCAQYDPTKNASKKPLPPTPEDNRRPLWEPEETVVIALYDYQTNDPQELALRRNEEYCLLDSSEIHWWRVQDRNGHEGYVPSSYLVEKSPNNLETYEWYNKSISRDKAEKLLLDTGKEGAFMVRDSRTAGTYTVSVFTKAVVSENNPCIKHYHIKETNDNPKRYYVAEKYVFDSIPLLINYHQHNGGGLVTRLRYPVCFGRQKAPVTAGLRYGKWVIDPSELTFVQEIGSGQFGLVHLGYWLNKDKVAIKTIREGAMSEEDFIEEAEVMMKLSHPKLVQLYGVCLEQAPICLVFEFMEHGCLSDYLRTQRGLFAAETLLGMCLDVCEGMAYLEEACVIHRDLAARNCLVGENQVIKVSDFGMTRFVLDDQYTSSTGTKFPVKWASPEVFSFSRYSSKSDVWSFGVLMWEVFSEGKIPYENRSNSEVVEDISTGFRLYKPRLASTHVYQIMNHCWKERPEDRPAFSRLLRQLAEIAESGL", "experiment": "Inhibition of a panel of kinases, in vitro HotSpot kinase assay: ITK", "conditions": "D-compounds panel data; 1 μM ATP", "description": "(§1) The degree of inhibition of a panel of kinases is determined using the in vitro HotSpot kinase assay (purified enzymes, ^33P-ATP, an appropriate substrate and 1 μM ATP)."}, "[4]": {"biological_target": "EGFR (Homo sapiens, UniProt P00533)", "sequence (P00533 25-1210)": "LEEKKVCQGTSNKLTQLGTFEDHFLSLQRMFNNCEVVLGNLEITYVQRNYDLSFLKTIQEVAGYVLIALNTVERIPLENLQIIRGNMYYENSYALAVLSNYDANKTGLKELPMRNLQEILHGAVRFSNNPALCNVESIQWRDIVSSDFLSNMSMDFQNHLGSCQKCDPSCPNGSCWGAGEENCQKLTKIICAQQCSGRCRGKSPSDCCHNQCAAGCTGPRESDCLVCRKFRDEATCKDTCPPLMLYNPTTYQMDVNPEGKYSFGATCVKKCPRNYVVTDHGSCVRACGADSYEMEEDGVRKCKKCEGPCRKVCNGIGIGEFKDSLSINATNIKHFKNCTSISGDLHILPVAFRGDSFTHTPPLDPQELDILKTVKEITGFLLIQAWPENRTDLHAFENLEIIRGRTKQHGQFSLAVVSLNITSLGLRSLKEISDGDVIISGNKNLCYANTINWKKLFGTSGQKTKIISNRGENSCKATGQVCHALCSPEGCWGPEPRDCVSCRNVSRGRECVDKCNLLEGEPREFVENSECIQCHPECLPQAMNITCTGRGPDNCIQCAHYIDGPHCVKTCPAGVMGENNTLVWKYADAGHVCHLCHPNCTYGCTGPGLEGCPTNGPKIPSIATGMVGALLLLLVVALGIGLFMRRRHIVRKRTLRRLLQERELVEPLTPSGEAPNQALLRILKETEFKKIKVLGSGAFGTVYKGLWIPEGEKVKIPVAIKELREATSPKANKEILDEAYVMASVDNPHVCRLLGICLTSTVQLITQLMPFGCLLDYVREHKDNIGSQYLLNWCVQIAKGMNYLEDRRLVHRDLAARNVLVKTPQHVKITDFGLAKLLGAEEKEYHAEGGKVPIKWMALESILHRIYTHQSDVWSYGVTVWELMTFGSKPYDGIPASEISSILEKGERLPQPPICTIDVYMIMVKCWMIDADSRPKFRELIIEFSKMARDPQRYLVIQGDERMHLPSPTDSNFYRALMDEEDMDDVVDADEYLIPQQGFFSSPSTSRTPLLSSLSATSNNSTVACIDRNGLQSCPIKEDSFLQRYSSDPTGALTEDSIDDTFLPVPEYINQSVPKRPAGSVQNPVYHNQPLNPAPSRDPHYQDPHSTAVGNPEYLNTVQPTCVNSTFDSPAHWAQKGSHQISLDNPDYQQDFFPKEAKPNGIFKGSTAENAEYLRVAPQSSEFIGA", "experiment": "Inhibition of a panel of kinases, in vitro HotSpot kinase assay: EGFR", "conditions": "D-compounds panel data; 1 μM ATP", "description": "as §1"}, "[5]": {"biological_target": "T3, TEC (Homo sapiens, UniProt P42680)", "T3 sequence (P42680 1-631)": "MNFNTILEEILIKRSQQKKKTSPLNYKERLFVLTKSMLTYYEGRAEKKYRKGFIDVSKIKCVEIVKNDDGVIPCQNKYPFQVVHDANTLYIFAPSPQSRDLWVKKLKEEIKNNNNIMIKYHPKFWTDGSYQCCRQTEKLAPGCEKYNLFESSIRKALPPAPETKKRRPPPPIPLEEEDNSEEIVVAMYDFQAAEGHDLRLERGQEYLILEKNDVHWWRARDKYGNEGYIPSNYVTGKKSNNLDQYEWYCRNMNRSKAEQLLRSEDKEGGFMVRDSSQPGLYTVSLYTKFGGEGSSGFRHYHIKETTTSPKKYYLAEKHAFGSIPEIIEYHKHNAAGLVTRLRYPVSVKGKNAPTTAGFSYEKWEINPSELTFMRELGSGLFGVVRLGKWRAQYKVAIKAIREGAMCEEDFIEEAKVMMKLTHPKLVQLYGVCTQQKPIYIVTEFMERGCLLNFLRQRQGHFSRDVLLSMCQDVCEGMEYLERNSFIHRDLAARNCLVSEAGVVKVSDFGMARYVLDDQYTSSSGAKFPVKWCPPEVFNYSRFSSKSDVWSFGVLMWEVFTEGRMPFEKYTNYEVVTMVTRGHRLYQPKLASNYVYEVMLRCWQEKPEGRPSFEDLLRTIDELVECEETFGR", "experiment": "Inhibition of a panel of kinases, in vitro HotSpot kinase assay: TEC", "conditions": "D-compounds panel data; 1 μM ATP", "description": "as §1"}},
  "note": "pIC50: −log10 of the molar value.",
  "data": [
    {"smiles": "Cn1cc(Nc2nc(N3CCC[C@@H](NC(=O)c4ccc(C5CC5)cc4)C3)cnc2C(N)=O)cn1", "note": "[Example D-191, 5-[(3R)-3-(4-cyclopropylbenzamido)piperidin-1-yl]-3-[(1-methyl-1H-pyrazol-4-yl)amino]pyrazine-2-carboxamide]", "values": [
      {"measurement": "pIC50", "setting": "[1]", "value": "5.00 to 6.00"},
      {"measurement": "pIC50", "setting": "[2]", "value": "6.00 to 7.00"},
      {"measurement": "pIC50", "setting": "[3]", "value": "5.00 to 6.00"},
      {"measurement": "pIC50", "setting": "[4]", "value": "< 5.00"},
      {"measurement": "pIC50", "setting": "[5]", "value": "6.00 to 7.00"}
    ]},
    {"smiles": "C[C@@H]1[C@H](NC(=O)c2ccc(C(C)(O)C(F)(F)F)cc2)CCCN1c1cnc(C(N)=O)c(Nc2cnn(C)c2)n1", "note": "(single isomer, unassigned) [Example D-214]", "values": [
      {"measurement": "pIC50", "setting": "[1]", "value": "5.00 to 6.00"},
      {"measurement": "pIC50", "setting": "[2]", "value": "7.00 to 8.00"},
      {"measurement": "pIC50", "setting": "[3]", "value": "6.00 to 7.00"},
      {"measurement": "pIC50", "setting": "[4]", "value": "6.00 to 7.00"},
      {"measurement": "pIC50", "setting": "[5]", "value": "≥ 8.00"}
    ]},
    {"smiles": "CN1CCN([C@@H]2CCCN(c3cnc(C(N)=O)c(Nc4cnn(C)c4)n3)C2)C1=O", "note": "[Example D-209, 3-[(1-methyl-1H-pyrazol-4-yl)amino]-5-[(3R)-3-(3-methyl-2-oxoimidazolidin-1-yl)piperidin-1-yl]pyrazine-2-carboxamide]", "values": [
      {"measurement": "pIC50", "setting": "[1]", "value": "5.00 to 6.00"},
      {"measurement": "pIC50", "setting": "[2]", "value": "6.00 to 7.00"},
      {"measurement": "pIC50", "setting": "[3]", "value": "5.00 to 6.00"},
      {"measurement": "pIC50", "setting": "[4]", "value": "< 5.00"},
      {"measurement": "pIC50", "setting": "[5]", "value": "7.00 to 8.00"}
    ]},
    {"smiles": "Cn1cc(Nc2nc(N3C4CCC(NC(=O)c5ccc(C6CC6)cc5)C3CC4)cnc2C(N)=O)cn1", "note": "(single isomer, unassigned) [Example D-202, 5-[2-(4-cyclopropylbenzamido)-8-azabicyclo[3.2. I]octan-8-yl]-3-[(1-methyl-1H-pyrazol-4-yl)amino]pyrazine-2-carboxamide]", "values": [
      {"measurement": "pIC50", "setting": "[1]", "value": "< 5.00"},
      {"measurement": "pIC50", "setting": "[2]", "value": "7.00 to 8.00"},
      {"measurement": "pIC50", "setting": "[3]", "value": "5.00 to 6.00"},
      {"measurement": "pIC50", "setting": "[4]", "value": "< 5.00"},
      {"measurement": "pIC50", "setting": "[5]", "value": "6.00 to 7.00"}
    ]},
    {"smiles": "C[C@@H]1[C@H](NC(=O)c2ccc(S(C)(=O)=O)cc2)CCCN1c1cnc(C(N)=O)c(Nc2ccc(N3CCN(C)CC3)cc2)n1", "note": "[Example D-227, 5-[(2R,3R)-3-(4-methanesulfonylbenzamido)-2-methylpiperidin-1-yl]-3-{[4-(4-methylpiperazin-1-yl)phenyl]amino}pyrazine-2-carboxamide]", "values": [
      {"measurement": "pIC50", "setting": "[1]", "value": "6.00 to 7.00"},
      {"measurement": "pIC50", "setting": "[2]", "value": "7.00 to 8.00"},
      {"measurement": "pIC50", "setting": "[3]", "value": "7.00 to 8.00"},
      {"measurement": "pIC50", "setting": "[4]", "value": "6.00 to 7.00"},
      {"measurement": "pIC50", "setting": "[5]", "value": "≥ 8.00"}
    ]},
    {"smiles": "C[C@@H]1[C@H](NC(=O)c2ccc(C3CC3)cc2F)CCCN1c1cnc(C(N)=O)c(Nc2cc(CN3CCCCC3)ns2)n1", "note": "[Example D-176, 5-[(2R,3R)-3-(4-cyclopropyl-2-fluorobenzamido)-2-methylpiperidin-1-yl]-3-{[3-(piperidin-1-ylmethyl)-1,2-thiazol-5-yl]amino}pyrazine-2-carboxamide]", "values": [
      {"measurement": "pIC50", "setting": "[1]", "value": "6.00 to 7.00"},
      {"measurement": "pIC50", "setting": "[2]", "value": "7.00 to 8.00"},
      {"measurement": "pIC50", "setting": "[3]", "value": "6.00 to 7.00"},
      {"measurement": "pIC50", "setting": "[4]", "value": "< 5.00"},
      {"measurement": "pIC50", "setting": "[5]", "value": "7.00 to 8.00"}
    ]},
    {"smiles": "C[C@@H]1[C@H](NC(=O)c2ccc(N(C)C)cc2)CCCN1c1cnc(C(N)=O)c(Nc2ccc(C3(C)CCN(C4CCCC4)CC3)cc2)n1", "note": "[Example D-183, 3-{[4-(1-cyclopentyl-4-methylpiperidin-4-yl)phenyl]amino}-5-[(2R,3R)-3-[4-(dimethylamino)benzamido]-2-methylpiperidin-1-yl]pyrazine-2-carboxamide]", "values": [
      {"measurement": "pIC50", "setting": "[1]", "value": "6.00 to 7.00"},
      {"measurement": "pIC50", "setting": "[2]", "value": "7.00 to 8.00"},
      {"measurement": "pIC50", "setting": "[3]", "value": "7.00 to 8.00"},
      {"measurement": "pIC50", "setting": "[4]", "value": "6.00 to 7.00"},
      {"measurement": "pIC50", "setting": "[5]", "value": "7.00 to 8.00"}
    ]},
    {"smiles": "C[C@@H]1[C@H](NC(=O)c2ccc(C3CC3)cc2)CCCN1c1cnc(C(N)=O)c(Nc2cnn(CCN(C)C)c2)n1", "note": "[Example D-187, 5-[(2R,3R)-3-(4-cyclopropylbenzamido)-2-methylpiperidin-1-yl]-3-({1-[2-(dimethylamino)ethyl]-1H-pyrazol-4-yl}amino)pyrazine-2-carboxamide]", "values": [
      {"measurement": "pIC50", "setting": "[1]", "value": "5.00 to 6.00"},
      {"measurement": "pIC50", "setting": "[2]", "value": "6.00 to 7.00"},
      {"measurement": "pIC50", "setting": "[3]", "value": "5.00 to 6.00"},
      {"measurement": "pIC50", "setting": "[4]", "value": "5.00 to 6.00"},
      {"measurement": "pIC50", "setting": "[5]", "value": "6.00 to 7.00"}
    ]},
    {"smiles": "CN1CCN(C(=O)c2ccc(Nc3nc(N4CCC[C@@H](n5ccc6cc(C7CC7)ccc6c5=O)C4)cnc3C(N)=O)cc2)CC1", "note": "[Example D-169, 5-[(3R)-3-(6-cyclopropyl-1-oxo-1,2-dihydroisoquinolin-2-yl)piperidin-1-yl]-3-{[4-(4-methylpiperazine-1-carbonyl)phenyl]amino}pyrazine-2-carboxamide]", "values": [
      {"measurement": "pIC50", "setting": "[1]", "value": "6.00 to 7.00"},
      {"measurement": "pIC50", "setting": "[2]", "value": "6.00 to 7.00"},
      {"measurement": "pIC50", "setting": "[3]", "value": "6.00 to 7.00"},
      {"measurement": "pIC50", "setting": "[4]", "value": "6.00 to 7.00"},
      {"measurement": "pIC50", "setting": "[5]", "value": "7.00 to 8.00"}
    ]}
  ]
}
